Source: patent US20050130989A1, “N-arylheteroaromatic products compositions containing them and use thereof” (Aventis Pharma S. A., priority 2003, published 2005)
pIC50: −log10 of the molar value. Counter-ions that a name gives are not always drawn. Like-named read-outs stand apart in the source and are kept apart here.

How the values were obtained:
HCT116 cells = assay: Inhibition of proliferation of the human colon tumor line HCT116 ([14C]-thymidine incorporation); type: cell-based; settings: 48 hours at 37° C., read-out: Inhibition of HCT116 proliferation IC 50 (μm)
Method: The proliferation of HCT116 cells is evaluated by measuring the incorporation of [^14C]-thymidine in the following manner. The HCT 116 cells (obtained from the ATCC) are cultured in a DMEM medium (Gibco) containing 10% fetal calf serum and antibiotics (1% penicillin, 1% streptomycin). To perform the proliferation test, the cells are inoculated in cytostar 96-well microplates (Amersham), at a rate of 5000 cells per well. [^14C]-thymidine (0.1 μCi/well) and the products to be evaluated are then added. Variable concentrations of products up to 10 μm are used; the DMSO (solvent used to dissolve the products) should not exceed 0.5% in the medium. 48 hours after incubation at 37° C., the radioactivity incorporated into the cells is measured by counting the plate in a TRI-LUX counter (Wallac). The IC50 is defined as the concentration of product that reduces the radioactivity by 50% compared with an untreated control. A product whose IC50 is less than 3 μm is considered cytotoxic.

tubulin = target: T1, tubulin (Sus scrofa, UniProt P02550+P02554); assay: Evaluation of the inhibition of tubulin polymerization (turbidimetry); type: biochemical, pig; settings: tubulin 10 μm (1 mg/ml), 37° C., turbidity at 350 nm; concentration that inhibits the rate of polymerization by 50%; read-out: Inhibition of tubulin polymerization IC 50 (μm)
T1 construct: Tubulin is purified from pig brain according to published methods; from tissue; host or cells: pig brain
Method: Tubulin is purified from pig brain according to published methods (Shelanski et al., 1973, Proc. Natl. Acad. Sci. USA, 70, 765-768. Weingarten et al., 1975, Proc. Natl. Acad. Sci. USA, 72, 1858-1862). Briefly, the brains are ground and centrifuged in an extraction buffer. The tubulin contained in the supernatant of the extract undergoes two successive cycles of polymerization at 37° C. and depolymerization at 4° C., before being separated from the MAPs (Microtubule Associated Proteins) by chromatography on a phosphocellulose P11 column (Whatman). The tubulin thus isolated is more than 95% pure. It is stored in a buffer known as RB/2 30% glycerol, the composition of which is 50 mM MES-NaOH [2-(N-morpholino)ethanesulfonic acid], pH 6.8; 0.25 mM MgCl2; 0.5 mM EGTA; 30% glycerol (v/v), 0.2 mM GTP (guanosine-5′-triphosphate).
The polymerization of tubulin to microtubules is monitored by turbidimetry as follows: the tubulin is adjusted to a concentration of 10 μm (1 mg/ml) in RB/2 30% glycerol buffer to which 1 mM GTP and 6 mM MgCl2 are added. The polymerization is triggered by an increase in temperature from 6° C. to 37° C. in a cuvette with an optical path length of 1 cm, placed in a UVIKON 931 spectrophotometer (Kontron) equipped with a thermostatically maintained cuvette holder. The increase in the turbidity of the solution is monitored at 350 nm.
The products are dissolved at 10 mM in DMSO and added at variable concentrations (0.5 to 10 μm) to the tubulin solution before polymerization. The IC50 value is defined as the concentration of product that inhibits the rate of polymerization by 50%.

T1 sequence (P02550 whole entry): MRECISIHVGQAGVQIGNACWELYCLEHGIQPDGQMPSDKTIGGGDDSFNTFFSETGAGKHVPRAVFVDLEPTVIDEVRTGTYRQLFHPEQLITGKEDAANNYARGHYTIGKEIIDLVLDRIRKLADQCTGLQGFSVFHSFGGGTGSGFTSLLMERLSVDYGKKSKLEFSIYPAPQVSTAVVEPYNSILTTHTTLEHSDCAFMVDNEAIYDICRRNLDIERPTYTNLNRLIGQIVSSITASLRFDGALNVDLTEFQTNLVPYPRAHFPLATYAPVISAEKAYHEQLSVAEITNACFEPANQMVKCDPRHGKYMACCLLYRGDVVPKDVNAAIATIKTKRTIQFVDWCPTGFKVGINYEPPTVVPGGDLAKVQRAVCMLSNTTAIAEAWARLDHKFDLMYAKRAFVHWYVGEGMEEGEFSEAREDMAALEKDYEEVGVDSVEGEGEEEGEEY
T1 sequence (P02554 whole entry): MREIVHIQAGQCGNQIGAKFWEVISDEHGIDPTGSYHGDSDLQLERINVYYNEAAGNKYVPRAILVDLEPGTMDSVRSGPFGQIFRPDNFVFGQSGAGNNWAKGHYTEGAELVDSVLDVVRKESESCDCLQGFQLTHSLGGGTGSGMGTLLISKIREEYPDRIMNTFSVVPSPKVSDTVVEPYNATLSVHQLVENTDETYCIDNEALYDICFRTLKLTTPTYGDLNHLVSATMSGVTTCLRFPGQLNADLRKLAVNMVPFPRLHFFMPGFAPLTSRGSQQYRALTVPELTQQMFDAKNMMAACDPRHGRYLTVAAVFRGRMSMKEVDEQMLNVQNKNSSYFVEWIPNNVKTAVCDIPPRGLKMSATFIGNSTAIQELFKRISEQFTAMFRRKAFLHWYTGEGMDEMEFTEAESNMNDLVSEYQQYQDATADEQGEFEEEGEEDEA

| SMILES | pIC50 (HCT116 cells; Homo sapiens, HCT-116, 48 h) | pIC50 (tubulin) | pIC50 (HCT116 cells) |
| --- | --- | --- | --- |
| O=C(c1cc(CO)nn1-c1ccccc1)N1CCN(c2cccc(Cl)c2)CC1 [Example E60, (5-Hydroxymethyl-2-phenyl-2H-pyrazol-3-yl)[4-(3-chlorophenyl)piperazin-1l-yl]methanone] | 7.93 | 5.86 |  |
| CSc1ccccc1N1CCN(C(=O)c2cc(C)nn2-c2cccc(C)c2)CC1 [3/51] | 7.43 | 5.70 |  |
| COc1cc(OC)cc(N2CCN(C(=O)c3ccnn3-c3ccccc3)CC2)c1 [Example E92, [4-(3,5-Dimethoxyphenyl)piperazin-1-yl](2-phenyl-2H-pyrazol-3-yl)methanone] | 9.00 | 5.94 |  |
| Cc1cc(C(=O)N2CCN(c3cccc(C(C)O)c3)CC2)n(-c2ccccc2)n1 (stereo not shown) [Example E39, {4-[3-(1-Hydroxyethyl)phenyl]piperazin-1-yl}(5-methyl-2-phenyl-2H-pyrazol-3-yl)methanone hydrochloride] | 7.14 | 5.60 |  |
| Cc1cc(C(=O)N2CCN(c3cc(Cl)cc(Cl)c3)CC2)n(-c2ccccc2)n1 [Example E2, [4-(3,5-Dichlorophenyl)piperazin-1-yl](5-methyl-2-phenyl-2H-pyrazol-3-yl)methanone] | 10.00 | 5.82 |  |
| Cc1cccc(-n2nc(C)cc2C(=O)N2CCN(c3cccc(C(F)(F)F)c3)CC2)c1 [3/46] | 6.71 | 5.10 |  |
| O=C(c1cccn1-c1ccccc1)N1CCN(c2cccnc2)CC1 [Example E46, (1-Phenyl-1H-pyrrol-2-yl)[4-(pyrid-3-yl)piperazin-1-yl]methanone hydrochloride] | 5.91 | 4.84 |  |
| COc1ccc(Cl)cc1N1CCN(C(=O)c2cc(C)nn2-c2cccc(F)c2)CC1 [3/22] | 7.34 | 5.82 |  |
| COc1ccccc1N1CCN(C(=O)c2cc(C)nn2-c2ccccc2F)CC1 [3/85] | 6.72 |  |  |
| Cc1cc(C(=O)N2CCN(c3ccccc3C)CC2)n(-c2cccc(Cl)c2)n1 [3/67] | 6.90 | 5.57 |  |
| O=C(c1cc(OCc2ccccc2)nn1-c1ccccn1)N1CCN(c2cccc(Cl)c2)CC1 [Example E61, (5-Benzyloxy-2-pyrid-2-yl-2H-pyrazol-3-yl)[4-(3-chlorophenyl)piperazin-1-yl]methanone] | 5.22 | 5.64 |  |
| Cc1cc(C(=O)N2CCN(c3ccc(F)cc3)CC2)n(-c2ccccc2)n1 [3/41] | 6.53 | 5.19 |  |
| COc1cccc(-n2nc(C)cc2C(=O)N2CCN(c3cc(Cl)ccc3C)CC2)c1 [3/4] | 6.41 | 5.74 |  |
| COc1cc(OC)cc(N2CCN(C(=O)c3cc(-c4ccc(F)cc4)nn3-c3ccccc3)CC2)c1 [Example E88, [4-(3,5-Dimethoxyphenyl)piperazin-1-yl][5-(4-fluorophenyl)-2-phenyl-2H-pyrazol-3-yl]methanone] | 5.90 | 5.34 |  |
| Cc1cc(C(=O)N2CCN(c3ccc(Br)c(Cl)c3)CC2)n(-c2ccccc2)n1 [Example E59, [4-(4-Bromo-3-chlorophenyl)piperazin-1-yl](5-methyl-2-phenyl-2H-pyrazol-3-yl)methanone] | 6.98 | 5.68 |  |
| COc1cc(OC)cc(N2CCN(C(=O)c3cc(-c4ccc(C(F)(F)F)cc4)nn3-c3ccccc3)CC2)c1 [Example E89, [4-(3,5-Dimethoxyphenyl)piperazin-1-yl][2-phenyl-5-(4-trifluoromethylphenyl)-2H-pyrazol-3-yl]methanone] | 5.96 | 5.47 |  |
| Cc1cccc(-n2nc(C)cc2C(=O)N2CCN(c3ccc4c(c3)OCCO4)CC2)c1 [3/56] | 6.86 | 5.30 |  |
| Cc1cc(C(=O)N2CCN(c3cccnc3)CC2)n(-c2ccccc2)n1 [3/153] | 7.65 | 5.66 |  |
| Cc1cc(C(=O)N2CCN(c3cc(Cl)ccc3C)CC2)n(-c2cccc(F)c2)n1 [3/21] | 6.33 | 5.74 |  |

| SMILES | pIC50 (HCT116 cells; Homo sapiens, HCT-116, 48 h) | pIC50 (tubulin) | pIC50 (HCT116 cells) |
| --- | --- | --- | --- |
| Cc1cccc(N2CCN(C(=O)c3cc(C)nn3-c3ccccc3)CC2C)c1 (stereo not shown) [3/109] | 5.36 | 5.10 |  |
| COc1cc(OC)cc(N2CCN(C(=O)c3cc(Br)nn3-c3ccccc3)CC2)c1 [Example E82, (5-Bromo-2-phenyl-2H-pyrazol-3-yl)[4-(3,5-dimethoxyphenyl)piperazin-1-y]-methanone] | 8.74 | 6.03 |  |
| CCc1ccccc1N1CCN(C(=O)c2cc(C)nn2-c2cccc(OC)c2)CC1 [3/136] | 6.03 | 4.90 |  |
| O=C(c1cc(-c2ccsc2)nn1-c1ccccc1)N1CCN(c2cccc(Cl)c2)CC1 [Example E68, [4-(3-Chlorophenyl)piperazin-1-yl][2-phenyl-5-(thiophen-3-yl)-2H-pyrazol-3-yl]methanone] | 6.47 | 5.85 |  |
| COc1ccccc1N1CCN(C(=O)c2cc(C)nn2-c2ccccc2)CC1 [3/7] | 7.40 | 5.25 |  |
| COc1cccc(-n2nc(C)cc2C(=O)N2CCN(c3ccc(C)c(C)c3)CC2)c1 [3/2] | 6.51 |  |  |
| Cc1cc(C(=O)N2CCN(c3ccc(C(F)(F)F)cc3)CC2)n(-c2cccc(Cl)c2)n1 [3/126] | 5.06 |  |  |
| Cc1cc(C(=O)N2CCN(c3ccc(Cl)c(Cl)c3)CC2)n(-c2ccccc2)n1 [3/110] | 6.52 |  |  |
| COc1ccc(-n2nc(C)cc2C(=O)N2CCN(c3cccc(Cl)c3)CC2)cc1 [3/39] | 6.13 |  |  |
| COc1ccccc1N1CCN(C(=O)c2cc(C)nn2-c2ccccc2F)CC1 [3/144] |  |  | 6.59 |
| COc1ccccc1N1CCN(C(=O)c2cc(C)nn2-c2cccc(Cl)c2)CC1 [3/120] | 7.40 |  |  |
| COc1cccc(N2CCN(C(=O)c3cc(C)nn3-c3ccccc3)CC2)n1 [Example E8, [4-(6-Methoxypyrid-2-yl)piperazin-1-yl](5-methyl-2-phenyl-2H-pyrazol-3-yl)-methanone] |  | 5.70 |  |
| Cc1cc(C(=O)N2CCN(c3ccc4c(c3)OCCO4)CC2)n(-c2cccc(F)c2)n1 [3/100] |  | > 4.60 |  |
| COc1cc(OC)cc(N2CCN(C(=O)c3cc(C(O)c4ccccc4)nn3-c3ccccc3)CC2)c1 (stereo not shown) [Example E131, [4-(3,5-Dimethoxyphenyl)piperazin-1-yl][5-(hydroxyphenylmethyl)-2-phenyl-2H-pyrazol-3-yl]methanone] |  | > 4.60 |  |
| COc1cc(OC)cc(N2CCN(C(=O)c3cc(C(O)C4CCCC4)nn3-c3ccccc3)CC2)c1 (stereo not shown) [Example E124, [5-(Cyclopentylhydroxymethyl)-2-phenyl-2H-pyrazol-3-yl][4-(3,5-dimethoxy-phenyl)piperazin-1-yl]methanone] |  | > 4.60 |  |
| C=CCNc1cc(C(=O)N2CCN(c3cc(OC)cc(OC)c3)CC2)n(-c2ccccc2)n1 [Example E130, (5-Allylamino-2-phenyl-2H-pyrazol-3-yl)[4-(3,5-dimethoxyphenyl)piperazin-1-yl]methanone] |  | 5.82 |  |
| NC(=O)c1cccc(N2CCN(C(=O)c3ccnn3-c3ccccc3)CC2)c1 [Example E133, 3-[4-(2-Phenyl-2H-pyrazole-3-carbonyl)piperazin-1-yl]benzamide] |  | 6.00 |  |
| COC(=O)CCC(=O)Nc1cccc(N2CCN(C(=O)c3cc(C)nn3-c3ccccc3)CC2)c1 [Example E83, Methyl N-{3-[4-(5-methyl-2-phenyl-2H-pyrazole-3-carbonyl)piperazin-1-yl]-phenyl}succinamate] |  | 4.70 |  |
| COc1cccc(-n2nc(C)cc2C(=O)N2CCN(c3ccccc3C)CC2)c1 [3/134] |  | 5.37 |  |
